{"source": "ChEMBL document CHEMBL5154828", "about": "(J Med Chem, 2022)", "key": {"[1]": {"test_system": "MDA-MB-361", "assay": "Antiproliferative activity against human MDA-MB-361 cells assessed as inhibition of cell growth measured after 10 days by cell titre glo luminescence assay", "type": "functional, cell-based", "details": "time 10.0 day"}, "[2]": {"target": "T1, Estrogen receptor (Homo sapiens) (UniProt P03372)", "T1 sequence (whole entry)": "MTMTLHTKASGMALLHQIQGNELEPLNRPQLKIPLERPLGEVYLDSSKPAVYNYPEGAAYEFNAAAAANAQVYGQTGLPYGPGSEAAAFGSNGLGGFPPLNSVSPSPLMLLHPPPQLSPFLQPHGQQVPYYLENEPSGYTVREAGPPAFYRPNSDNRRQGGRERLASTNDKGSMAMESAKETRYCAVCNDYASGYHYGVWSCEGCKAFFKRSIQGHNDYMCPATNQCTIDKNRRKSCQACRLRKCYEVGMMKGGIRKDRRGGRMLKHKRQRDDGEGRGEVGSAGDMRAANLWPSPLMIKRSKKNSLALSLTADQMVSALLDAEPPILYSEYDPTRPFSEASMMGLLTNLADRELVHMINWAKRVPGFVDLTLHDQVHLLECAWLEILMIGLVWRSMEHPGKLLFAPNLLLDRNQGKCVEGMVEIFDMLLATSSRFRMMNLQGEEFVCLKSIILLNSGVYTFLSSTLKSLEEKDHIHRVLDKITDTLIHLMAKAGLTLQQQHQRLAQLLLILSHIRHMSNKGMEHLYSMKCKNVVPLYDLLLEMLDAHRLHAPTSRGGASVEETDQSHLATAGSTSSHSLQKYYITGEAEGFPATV", "assay": "Induction of ERalpha degradation in human MCF7 cells at 5 uM incubated 24 hrs by Western blot analysis", "type": "cell-based"}, "[3]": {"test_system": "MCF7", "assay": "Antitumor activity against tamoxifen-sensitive human MCF7 cells xenografted in athymic mouse assessed as reduction in tumor growth at 15 mg/kg, po qd measured after 21 days", "details": "504 h, read-out: TGI"}, "[4]": {"test_system": "CAMA-1", "assay": "Antiproliferative activity against human CAMA-1 cells assessed as inhibition of cell growth measured after 8 days by cell titre glo luminescence assay", "type": "functional, cell-based", "details": "time 8.0 day"}, "[5]": {"test_system": "MCF7", "assay": "Antiproliferative activity against human MCF7 cells assessed as inhibition of cell growth measured after 6 days by cell titre glo luminescence assay", "details": "MCF7, 144 h"}, "[6]": {"assay": "Drug concentration in rat plasma at 20 mg/kg, po measured after 2 hrs", "type": "ADME, organism-based"}, "[7]": {"assay": "MRT in Sprague-Dawley rat at 10 mg/kg, po measured up to 24 hrs by LC/MS/MS analysis", "type": "ADME, organism-based", "details": "in vivo"}, "[8]": {"assay": "Tmax in Sprague-Dawley rat at 10 mg/kg, po measured up to 24 hrs by LC/MS/MS analysis", "type": "ADME, organism-based", "details": "in vivo"}, "[9]": {"assay": "Tmax in ICR mouse at 5 mg/kg, po measured up to 24 hrs by LC/MS/MS analysis", "type": "ADME, organism-based", "details": "in vivo"}, "[10]": {"target": "T1, Estrogen receptor (Homo sapiens)", "assay": "Induction of ERalpha degradation in human BT-474 cells incubated 24 hrs by Western blot analysis", "type": "cell-based", "details": "dose 0.1-1000 nM, DDE = dose-dependent effect"}, "[11]": {"assay": "Antiproliferative activity against human MCF-7/TAMR-1 cells assessed as inhibition of cell growth measured after 8 days by cell titre glo luminescence assay", "details": "MCF-7/TAMR-1, 192 h"}, "[12]": {"assay": "Drug concentration in rat blood at 20 mg/kg, po measured after 2 hrs", "type": "ADME, organism-based", "details": "whole blood, read-out: Ct"}, "[13]": {"target": "T1, Estrogen receptor (Homo sapiens)", "assay": "Induction of ERalpha degradation in human MDA-MB-361 cells incubated 24 hrs by Western blot analysis", "type": "cell-based", "details": "dose 0.1-1000 nM, DDE = dose-dependent effect"}, "[14]": {"assay": "Drug concentration in rat breast at 20 mg/kg, po measured after 2 hrs", "type": "ADME, organism-based", "details": "read-out: Ct"}, "[15]": {"assay": "Elimination half life in ICR mouse at 5 mg/kg, po measured up to 24 hrs by LC/MS/MS analysis", "type": "ADME, organism-based", "details": "in vivo, read-out: beta t1/2 (converted)"}, "[16]": {"assay": "Ratio of drug concentration in rat liver to plasma at 20 mg/kg, po measured after 2 hrs"}, "[17]": {"assay": "Cmax in ICR mouse at 2 mg/kg, iv measured up to 24 hrs by LC/MS/MS analysis", "type": "ADME, organism-based", "design": "dose 2 mg/kg, time < 24 hrs, route iv", "details": "in vivo"}, "[18]": {"target": "Estrogen receptor (Homo sapiens, UniProt P03372, D538G)", "sequence (P03372 whole entry D538G)": "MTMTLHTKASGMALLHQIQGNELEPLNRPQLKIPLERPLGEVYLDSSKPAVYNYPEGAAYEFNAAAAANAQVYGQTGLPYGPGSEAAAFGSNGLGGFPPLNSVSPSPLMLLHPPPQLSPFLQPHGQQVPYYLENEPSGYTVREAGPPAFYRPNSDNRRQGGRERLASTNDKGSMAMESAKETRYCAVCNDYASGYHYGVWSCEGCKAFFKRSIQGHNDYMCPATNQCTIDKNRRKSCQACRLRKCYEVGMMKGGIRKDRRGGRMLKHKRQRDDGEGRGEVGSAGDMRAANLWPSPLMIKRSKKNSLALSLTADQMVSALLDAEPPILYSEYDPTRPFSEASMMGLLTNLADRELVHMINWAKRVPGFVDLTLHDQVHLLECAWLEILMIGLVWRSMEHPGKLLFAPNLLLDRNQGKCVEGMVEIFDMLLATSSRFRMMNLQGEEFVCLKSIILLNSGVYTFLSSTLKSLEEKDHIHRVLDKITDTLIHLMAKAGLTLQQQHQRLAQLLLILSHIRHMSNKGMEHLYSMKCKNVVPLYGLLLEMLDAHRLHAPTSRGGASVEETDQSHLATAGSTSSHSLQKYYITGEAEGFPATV", "assay": "Antagonist activity at ERalpha D538G mutant degradation in human SK-BR-3 cells incubated for 24 hrs in presence of beta-estradiol by luciferase gene assay", "type": "cell-based"}, "[19]": {"assay": "Cmax in Sprague-Dawley rat at 10 mg/kg, po measured up to 24 hrs by LC/MS/MS analysis", "type": "ADME, organism-based", "design": "time < 24 hrs, dose 10 mg/kg, route po", "details": "in vivo"}, "[20]": {"assay": "AUC (0 to t) in ICR mouse at 5 mg/kg, po measured up to 24 hrs by LC/MS/MS analysis", "type": "ADME, organism-based", "design": "time < 24 hrs, dose 5 mg/kg, route po", "details": "in vivo"}, "[21]": {"assay": "Oral bioavailability in ICR mouse at 5 mg/kg measured up to 24 hrs by LC/MS/MS analysis", "type": "ADME, organism-based", "details": "in vivo"}, "[22]": {"assay": "Ratio of drug concentration in rat brain to plasma at 20 mg/kg, po measured after 2 hrs"}, "[23]": {"assay": "Elimination half life in Sprague-Dawley rat at 10 mg/kg, po measured up to 24 hrs by LC/MS/MS analysis", "type": "ADME, organism-based", "details": "in vivo, read-out: beta t1/2 (converted)"}, "[24]": {"assay": "Ratio of drug concentration in rat breast to plasma at 20 mg/kg, po measured after 2 hrs"}, "[25]": {"assay": "Ratio of drug concentration in rat uterus to plasma at 20 mg/kg, po measured after 2 hrs", "details": "female"}, "[26]": {"assay": "Cmax in ICR mouse at 5 mg/kg, po measured up to 24 hrs by LC/MS/MS analysis", "type": "ADME, organism-based", "design": "dose 5 mg/kg, time < 24 hrs, route po", "details": "in vivo"}, "[27]": {"target": "T1, Estrogen receptor (Homo sapiens)", "assay": "Induction of ERalpha degradation in human MCF7 cells at 1 nM by Western blot analysis", "type": "cell-based", "details": "time 0.5-24 hrs, TDE = time-dependent effect"}, "[28]": {"target": "Estrogen receptor (Homo sapiens, UniProt P03372, Y537S)", "sequence (P03372 whole entry Y537S)": "as the sequence (P03372 whole entry D538G) above, with Y537S, G538D counted along it", "assay": "Antagonist activity at ERalpha Y537S mutant degradation in human SK-BR-3 cells incubated for 24 hrs in presence of beta-estradiol by luciferase gene assay", "type": "cell-based"}, "[29]": {"assay": "Ratio of drug concentration in rat ovary to plasma at 20 mg/kg, po measured after 2 hrs", "details": "female"}, "[30]": {"assay": "Clearance in ICR mouse at 2 mg/kg, iv measured up to 24 hrs by LC/MS/MS analysis", "type": "ADME, organism-based", "details": "in vivo"}, "[31]": {"test_system": "Estrogen receptor (Homo sapiens), P03372 [Y537S]", "sequence (P03372 whole entry Y537S)": "as the sequence (P03372 whole entry D538G) above, with Y537S, G538D counted along it", "assay": "Induction of ERalpha Y537S mutant degradation in human MCF7 cells at 10 to 100 nM incubated for 4 hrs by Western blot analysis", "type": "cell-based", "details": "dose 10-100 nM"}, "[32]": {"assay": "MRT in ICR mouse at 2 mg/kg, iv measured up to 24 hrs by LC/MS/MS analysis", "type": "ADME, organism-based", "details": "in vivo"}, "[33]": {"assay": "Volume of distribution at steady state in ICR mouse at 2 mg/kg, iv measured up to 24 hrs by LC/MS/MS analysis", "type": "ADME, organism-based", "details": "in vivo, read-out: Vdss"}, "[34]": {"assay": "Elimination half life in ICR mouse at 2 mg/kg, iv measured up to 24 hrs by LC/MS/MS analysis", "type": "ADME, organism-based", "details": "in vivo, read-out: beta t1/2 (converted)"}, "[35]": {"target": "T1, Estrogen receptor (Homo sapiens)", "assay": "Induction of ERalpha degradation in human T47D cells incubated 24 hrs by Western blot analysis", "type": "cell-based", "details": "dose 0.1-1000 nM, DDE = dose-dependent effect"}, "[36]": {"assay": "AUC (0 to t) in Sprague-Dawley rat at 10 mg/kg, po measured up to 24 hrs by LC/MS/MS analysis", "type": "ADME, organism-based", "design": "time < 24 hrs, dose 10 mg/kg, route po", "details": "in vivo"}}, "note": "Calls of active or inactive are those of the source. The calls are words filed in the database; no cut-off is given here.", "data": [{"smiles": "CC(F)(F)c1cc(Cl)ccc1-c1sc2c(ccc3[nH]ncc32)c1Oc1ccc(OC2CN(CCCF)C2)cc1", "values": [{"measurement": "Activity", "setting": "[1]", "result": "Active"}, {"measurement": "Activity", "setting": "[2]", "result": "Active"}, {"measurement": "inhibition in vivo at 15 mg/kg", "setting": "[3]", "result": -17, "unit": "%"}, {"measurement": "Activity", "setting": "[4]", "result": "Active"}, {"measurement": "IC50", "setting": "[5]", "result": 1, "unit": "nM"}, {"measurement": "concentration at 2 h", "setting": "[6]", "result": 609, "unit": "ng/mL"}, {"measurement": "MRT", "setting": "[7]", "result": 7, "unit": "h"}, {"measurement": "Tmax", "setting": "[8]", "result": 3.3, "unit": "h"}, {"measurement": "Tmax", "setting": "[9]", "result": 2.7, "unit": "h"}, {"measurement": "Activity", "setting": "[10]", "result": "Dde"}, {"measurement": "IC50", "setting": "[11]", "result": 3.2, "unit": "nM"}, {"measurement": "concentration at 2 h", "setting": "[12]", "result": 480, "unit": "ng/mL"}, {"measurement": "Activity", "setting": "[13]", "result": "Dde"}, {"measurement": "concentration at 2 h", "setting": "[14]", "result": 2410, "unit": "ng/mL"}, {"measurement": "half-life", "setting": "[15]", "result": 5.7, "unit": "h"}, {"measurement": "Kp at 2 h", "setting": "[16]", "result": 34.9}, {"measurement": "Cmax", "setting": "[17]", "result": 764, "unit": "ng/mL"}, {"measurement": "IC50", "setting": "[18]", "result": 16.1, "unit": "nM"}, {"measurement": "Cmax", "setting": "[19]", "result": 340, "unit": "ng/mL"}, {"measurement": "AUC(0-t) at 24 h", "setting": "[20]", "result": 7710, "unit": "ng·h/mL"}, {"measurement": "bioavailability", "setting": "[21]", "result": 67, "unit": "%"}, {"measurement": "Kp at 2 h", "setting": "[22]", "result": 0.7}, {"measurement": "half-life", "setting": "[23]", "result": 4.6, "unit": "h"}, {"measurement": "Kp at 2 h", "setting": "[24]", "result": 4}, {"measurement": "Kp at 2 h", "setting": "[25]", "result": 3.6}, {"measurement": "Cmax", "setting": "[26]", "result": 768, "unit": "ng/mL"}, {"measurement": "Activity", "setting": "[27]", "result": "Tde"}, {"measurement": "IC50", "setting": "[28]", "result": 10.3, "unit": "nM"}, {"measurement": "Kp at 2 h", "setting": "[29]", "result": 7.3}, {"measurement": "clearance", "setting": "[30]", "result": 7, "unit": "mL/min/kg"}, {"measurement": "Activity", "setting": "[31]", "result": "Active"}, {"measurement": "MRT", "setting": "[32]", "result": 6.4, "unit": "h"}, {"measurement": "Vd", "setting": "[33]", "result": 2.7, "unit": "L/kg"}, {"measurement": "half-life", "setting": "[34]", "result": 4.6, "unit": "h"}, {"measurement": "Activity", "setting": "[35]", "result": "Dde"}, {"measurement": "AUC(0-t) at 24 h", "setting": "[36]", "result": 3180, "unit": "ng·h/mL"}]}]}
